Paper PMC7259601 (PLoS ONE, 2020)
Read-outs that look alike come from different tables or passages of the source.

What was measured:
19 epigenetic targets = test: Panel of 19 epigenetic targets; assay type: biochemical; conditions: 10 μM
Method: (§1) […]. MAO-A inhibition at 10 μM was 37%, in line with internal data.

Mouse pharmacokinetics = assay type: in vivo, BALB/c mice; conditions: for AUC(0-inf): read-out: Plasma AUCinf; for AUC(0-t): read-out: Plasma AUClast
Method: Temperature and humidity were maintained at 22 ± 3 °C and 40-70 %, respectively and illumination was controlled to give a sequence of 12 hr light / dark cycle. The temperature and humidity were recorded by auto-controlled data logger system. All the animals were acclimatized to the experimental conditions for at least three days prior to dosing. All the animals were provided laboratory rodent diet (Vetcare India Pvt. Ltd, Bengaluru) except for overnight before treatment and 2 hr post dose. Reverse osmosis water treated with ultraviolet light was provided ad libitum. Blood samples were collected at 0, 0.05, 0.16, 0.5, 1, 2, 4, 8 & 24 hr for IV and for PO at 0, 0.25, 0.5, 1, 2, 4, 6, 8 and 24 hr post dosing. Each mouse was assigned to one of 3 subgroups and sampled at 3 timepoints. Animals were euthanized by using excess CO2 asphyxiation. The study was conducted at Sai Life Sciences Limited, Pune, India, in accordance with the guidelines of the Institutional Animal Ethics Committee (IAEC) and in accordance with the requirement of Committee for the Purpose of Control and Supervision of Experiments on Animals (CPCSEA), India. Prior approval was obtained before initiation of the study (IAEC Protocol No. IAEC/PRT/012-10; IAEC-CPCSEA).
Plasma was harvested from the blood samples harvested in K2EDTA containing tubes by centrifugation at 4000 rpm for 10 min at 4 ± 2 °C and stored below -70 °C until bioanalysis. Brain tissue was homogenized with phosphate buffer saline (pH 7.4). Total homogenate volume was thrice the tissue weight. All samples were processed for analysis by precipitation using Imipramine as internal standard and analyzed with partially validated LC-MS/MS method. Pharmacokinetic parameters were calculated using the non-compartmental analysis tool of WinNonlin® Enterprise software (Pharsight Corp., USA; version 5.2).
Compound levels from 3 samples per timepoint (for a given dose and route of administration), were used to calculated pharmacokinetic parameters using the non-compartmental analysis tool of WinNonlin® Enterprise software (Pharsight Corp., USA; version 5.2).

[1] = test system: guanylyl cyclase (h) (activator effect); test: CEREP Diversity Panel; assay type: biochemical, human; design: dose or concentration left out as unconfirmed
Method: as §1

H3K9 ac = test: Epigenetic selectivity profile; assay type: biochemical; design: dose or concentration left out as unconfirmed
Method: as §1

KDM1A = KDM1A (Homo sapiens, UniProt O60341); test: MALDI-TOF mass spectrometry of FAD-ORY-2001 adducts; assay type: binding
Method: The sample was initially purified by reversed phase chromatography in a ZipTipC18 pipette tip (Millipore, USA) wet using column and equilibrated with 0.1% TFA. The sample was bound to the column by repeated aspiring and dispensing to achieve maximum binding. The ZipTip pipette tip was washed three times with 0.1% TFA and eluted in 4 µl. of 50 % ACN/ 0.1% TFA. 1 µl of eluted sample was loaded onto an AnchorChip MALDI target (Bruker, Germany); 2 µl. of matrix solution (0.3 mg/ml HCCA -alpha-cyano-4-hydroxycinamic acid in EtOH/acetone 2:1) was added and the mixture was allowed to dry at room temperature. The sample preparations were analyzed in an AutoFlex Speed MALDI TOF/TOF mass spectrometer (Bruker, Germany), equipped with a Nd:YAG laser. MS spectra were acquired in Reflector mode, with either positive or negative polarity. MSMS post source-decay fragmentation spectra of selected precursor ions were obtained using the LIFT module (Bruker, Germany).

Mouse recombinant SMOX = target: T1, Mouse recombinant SMOX (Mus musculus, UniProt Q99K82); test: SMOX inhibition assay; assay type: biochemical
T1 construct: gift: Paolo Mariottini, Department of Biology, University of Roma
Method: Mouse recombinant SMOX [4] was provided by Paolo Mariottini (Department of Biology, University of Roma). The biochemical activity was measured by its ability to oxidize spermine (specific substrate for SMOX) and produce H2O2 using a horseradish peroxidase coupled assay. The assay buffer for the mSMOX reaction was 100 mM Sodium Phosphate pH 8.0. The inhibition was monitored during 10 min in the presence of KM spermine peptide.

[2] = test system: I2 (antagonist radioligand); test: CEREP Diversity Panel; assay type: binding; design: % inhibition: dose or concentration left out as unconfirmed
Method: as §1

[3] = test system: M (non-selective) (antagonist radioligand); test: CEREP Diversity Panel; assay type: binding; design: % inhibition: dose or concentration left out as unconfirmed
Method: as §1

THP-1 cells = test: FACS based CD11B induction assay in THP-1; assay type: cell-based; conditions: Homo sapiens; THP-1, 96 hr; read-out: EC50 induction of differentiation marker CD11B
Method: Human leukemic THP1 (ACC-16) cells ([…]) were obtained from DMSZ and maintained in RPMI 1640 medium (Cat# R0883; Sigma Aldrich) supplemented with 10 % heat inactivated fetal bovine serum (FBS; Cat# F9665; Sigma-Aldrich) and 2 mM Glutamine (Cat# X0550 Biowest).
THP-1 cells are acute leukemia cells with blast phenotype that can be induced to differentiate into a monocyte/macrophage phenotype by cell penetrant KDM1A inhibitors. Differentiation can be followed by measurement of induction of differentiation surface markers like CD11B. Cells were treated for 96 hr with KDM1A inhibitors. Fluorescent assisted cell sorting (FACS) analysis of CD11B expression was performed on 1.5 x 10^5 THP-1 cells (obtained from German Collection of microorganism and Cell Cultures; ACC-16) using a phycoerythrin-conjugated human CD11B-specific mouse monoclonal antibody (eBiosciences, #12-0118) at dilution 1:5 on a cytomics FC500 (Beckman Coulter) with FlowJo software. The mouse IgG1 K isotype (eBiosciences, #12-4714) was used as a control antibody. Concentration-response curves were determined out by assaying inhibitors at concentrations ranging between 0.32 and 200 nM.

[4] = male, mouse, plasma, BALB/c mice, intravenous 2 mg/kg
[5] = male, mouse, plasma, BALB/c mice, oral 10 mg/kg

T1 sequence (Q99K82 whole entry): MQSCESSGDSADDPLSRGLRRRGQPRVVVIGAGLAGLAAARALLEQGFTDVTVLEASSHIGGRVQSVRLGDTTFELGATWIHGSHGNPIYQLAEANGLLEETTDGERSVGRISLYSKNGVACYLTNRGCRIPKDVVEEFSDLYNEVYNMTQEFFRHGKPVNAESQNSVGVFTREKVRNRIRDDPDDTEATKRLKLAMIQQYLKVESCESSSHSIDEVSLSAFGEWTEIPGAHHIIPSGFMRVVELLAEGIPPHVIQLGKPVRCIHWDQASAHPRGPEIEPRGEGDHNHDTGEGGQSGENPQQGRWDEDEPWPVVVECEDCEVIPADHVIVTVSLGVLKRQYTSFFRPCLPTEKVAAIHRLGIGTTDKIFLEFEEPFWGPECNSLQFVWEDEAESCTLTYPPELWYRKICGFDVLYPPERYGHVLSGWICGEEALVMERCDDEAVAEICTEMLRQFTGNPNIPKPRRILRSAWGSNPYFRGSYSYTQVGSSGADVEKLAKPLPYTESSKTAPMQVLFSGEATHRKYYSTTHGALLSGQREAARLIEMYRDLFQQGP

What does the source list for `Nc1nnc(CN[C@@H]2C[C@H]2c2ccc(OCc3ccccc3)cc2)o1` [ORY-2001, vafidemstat]?
% inhibition, any of 19 epigenetic targets (19 epigenetic targets): ≤ 15%; Brain Cmax (Mouse pharmacokinetics; BALB/c mice, oral 10 mg/kg): 5804 ng/g; Fpo (Mouse pharmacokinetics; BALB/c mice, oral 10 mg/kg): 75%; AUC (Mouse pharmacokinetics; male, mouse, plasma, po, Balb/c mice, p.o. 10 mg/kg, read-out: area-under-the-curve (AUC) (converted)): 17200 ng·h/mL; clearance (Mouse pharmacokinetics; [4]): 6.8 mL/min/kg; half-life (Mouse pharmacokinetics; [4]): 123 min; AUC(0-inf) (Mouse pharmacokinetics; [4]): 4880 ng·h/mL; AUC(0-t) (Mouse pharmacokinetics; [4]): 4570 ng·h/mL; Vd (Mouse pharmacokinetics; male, mouse, plasma, BALB/c mice, intravenous 2 mg/kg, read-out: Vss): 1.1 L/kg; Cmax (Mouse pharmacokinetics; [5]): 4160 ng/mL; Tmax (Mouse pharmacokinetics; [5]): 15 min; half-life (Mouse pharmacokinetics; [5]): 133 min; AUC(0-inf) (Mouse pharmacokinetics; [5]): 17200 ng·h/mL; AUC(0-t) (Mouse pharmacokinetics; [5]): 17200 ng·h/mL; % inhibition [1]: 1%; % inhibition (H3K9 ac): -5%; adduct formation with KDM1A (KDM1A): adduct formation; inhibition at 10 µM (Mouse recombinant SMOX): 31%; % inhibition [2]: 71%; I2 imidazoline receptor inhibition of ligand binding ([2]; 10 μM): 71%; % inhibition [3]: 1%; muscarinic receptor antagonist (MRA) activity [3]: not an MRA; EC50 (THP-1 cells): 21 nM
